Paper PMC12881670, “Investigation into ligand selectivity and bias at the formyl peptide receptor family” (The Journal of Pharmacology and Experimental Therapeutics, 2025)
Entries after “also recorded” stand apart in the source; their conditions may differ. Read-outs that look alike come from different tables or passages of the source. Where a SMILES comes first, the peptide text is derived from it. Where no end group is shown, it is not given here. The star is where a group is joined. For = O=C*

Legend:
Format in all cases: cell-based
[1] = target: T1, Hs_FPR2 (Homo sapiens, UniProt P25090); experiment: BRET receptor-RLuc8 interaction with Arrestin 3-YFP; settings: for Emax (%) / Log EC50 (M): Arrestin 3 BRET, mean, ND = no interaction detected; for Emax (%): % of response to 1 μM WKYMVm; for Log EC50 (M): log of EC50, HEK293 transient, 10 min
T1 construct: expressed in transfected cells
T1 sequence (P25090 1-351): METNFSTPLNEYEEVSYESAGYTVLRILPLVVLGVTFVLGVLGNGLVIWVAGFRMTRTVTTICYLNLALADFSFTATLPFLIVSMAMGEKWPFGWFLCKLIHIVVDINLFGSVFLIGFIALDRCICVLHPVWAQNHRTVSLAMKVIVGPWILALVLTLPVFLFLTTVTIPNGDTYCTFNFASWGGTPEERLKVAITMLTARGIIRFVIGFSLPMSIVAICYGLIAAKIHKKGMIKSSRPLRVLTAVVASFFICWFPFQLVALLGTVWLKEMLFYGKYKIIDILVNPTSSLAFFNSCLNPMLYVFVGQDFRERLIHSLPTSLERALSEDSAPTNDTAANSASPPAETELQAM
Summary of the method: (§1)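 Agonist-induced BRET between C-terminal RLuc8-fused receptor and Venus-mGsi or YFP-Arrestin 3 was recorded after 10 min compound treatment at 37 °C, using coelenterazine h at 5 μM final. Acceptor/donor ratios minus untreated background gave N-BRET, fitted with a 3-parameter log(agonist)–response model.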

[2] = target: T1, Hs_FPR2; experiment: Internalization of FLAG-tagged receptors by flow cytometry; set-up: Emax: dose or concentration left out as unconfirmed; settings: for Emax (%), internalization, Mean: % of internalization to WKYMVm (1 mM in legend, 1 μM in text), Hs_FPR2, 30 minutes; for Emax (%), internalization, Mean / Log EC50 (M), internalization, Mean: ND denotes no internalization measured; for agonist-induced internalization (words): Hs_FPR2, 30 min, relative to 1 μM WKYMVm; for Log EC50 (M), internalization, Mean: HEK293 stably expressing FLAG-Hs_FPR2, ligand 30 minutes
Experimental: (§2) Internalization of FPRs was measured by flow cytometry.[30] Briefly, cells were incubated with Alexa Fluor 657 conjugated M1 antiflag antibody (Sigma-Aldrich Cat# F3040, RRID:AB_439712) for 30 minutes at 37 °C to label surface receptors. Cells were then incubated with the indicated concentration of ligand before washing in PBS/0.04% EDTA to remove any remaining surface antibody. Remaining fluorescence was then measured using flow cytometry on either a BD FACScalibur or Attune, recording 5000 gated events. […] As a control, some samples were left untreated, and “strip only” was measured as a readout of constitutive endocytosis, and this value was subtracted from the data.
(§3) All data were analyzed using GraphPad Prism using the nonlinear regression log(agonist) versus response (3 parameters) function for all assays, except binding, which was analyzed using the One site-FitlogIC50 function. Bias calculations were carried out following IUPHAR guidelines as described,[27]^,[37] and data were presented as the Δ Activity ratio (Log[EmaxB/EC50B])-(Log[EmaxA/EC50A]).

[3] = target: T2, Hs_FPR1 (Homo sapiens, UniProt P21462); experiment: as above; set-up: Emax: dose or concentration left out as unconfirmed; settings: for agonist-induced internalization (words): Hs_FPR1, 30 min, relative to 1 μM WKYMVm; for Emax: read-out: Emax (%), internalization, Mean
T2 construct: expressed in transfected cells
T2 sequence (P21462 1-350): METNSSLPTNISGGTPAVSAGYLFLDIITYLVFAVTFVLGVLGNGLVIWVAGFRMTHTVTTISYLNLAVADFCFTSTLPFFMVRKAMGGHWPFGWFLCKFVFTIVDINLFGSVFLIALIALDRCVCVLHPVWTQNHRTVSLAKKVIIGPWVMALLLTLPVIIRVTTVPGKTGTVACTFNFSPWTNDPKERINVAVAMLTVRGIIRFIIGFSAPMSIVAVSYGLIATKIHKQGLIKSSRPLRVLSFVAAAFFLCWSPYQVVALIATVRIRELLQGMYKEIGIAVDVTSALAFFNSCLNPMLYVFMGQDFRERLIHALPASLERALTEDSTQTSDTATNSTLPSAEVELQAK
Experimental: as §2, §3

[4] = target: T3, Mm_Fpr2 (Mus musculus, UniProt O88536); experiment: as above; set-up: Emax: dose or concentration left out as unconfirmed; settings: for Emax (%), internalization, Mean: % of internalization to WKYMVm (1 mM in legend, 1 μM in text), Mm_Fpr2, 30 minutes; for Log EC50 (M), internalization, Mean: HEK293 stably expressing FLAG-Mm_Fpr2, ligand 30 minutes; for agonist-induced internalization (words): Mm_Fpr2, 30 min, relative to 1 μM WKYMVm
T3 construct: expressed in transfected cells
T3 sequence (O88536 1-351): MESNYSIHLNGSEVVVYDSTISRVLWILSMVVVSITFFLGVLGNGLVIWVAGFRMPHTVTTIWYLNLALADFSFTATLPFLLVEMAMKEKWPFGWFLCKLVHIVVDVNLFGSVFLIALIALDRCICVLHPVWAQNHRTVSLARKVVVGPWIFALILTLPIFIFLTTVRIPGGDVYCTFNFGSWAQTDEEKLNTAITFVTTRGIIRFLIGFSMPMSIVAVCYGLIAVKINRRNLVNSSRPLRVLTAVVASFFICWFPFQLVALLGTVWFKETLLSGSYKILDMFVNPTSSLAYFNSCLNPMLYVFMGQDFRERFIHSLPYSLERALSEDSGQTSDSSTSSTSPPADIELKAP
Summary of the method: (§4)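 Surface FLAG-receptors labelled with Alexa Fluor-conjugated M1 anti-FLAG for 30 min at 37 °C, then exposed to ligand; surface antibody stripped with PBS/0.04% EDTA and internalised fluorescence read by flow cytometry (5000 events), constitutive endocytosis subtracted. Curves fitted by log(agonist) vs response, 3 parameters.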

[5] = target: T4, Mm_Fpr1 (Mus musculus, UniProt P33766); experiment: as above; set-up: Emax: dose or concentration left out as unconfirmed; settings: for agonist-induced internalization (words): Mm_Fpr1, 30 min, relative to 1 μM WKYMVm
T4 construct: expressed in transfected cells
T4 sequence (P33766 1-364): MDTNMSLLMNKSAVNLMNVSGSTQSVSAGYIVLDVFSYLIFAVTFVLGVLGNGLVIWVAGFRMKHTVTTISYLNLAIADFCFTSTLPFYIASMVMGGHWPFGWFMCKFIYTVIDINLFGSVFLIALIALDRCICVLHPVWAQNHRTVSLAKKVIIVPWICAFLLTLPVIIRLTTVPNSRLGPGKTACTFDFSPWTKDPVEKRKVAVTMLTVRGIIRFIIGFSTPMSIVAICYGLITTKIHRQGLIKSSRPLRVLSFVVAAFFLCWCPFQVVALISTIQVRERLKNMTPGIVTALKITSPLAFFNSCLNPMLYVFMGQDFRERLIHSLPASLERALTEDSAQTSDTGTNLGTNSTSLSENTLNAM
Summary of the method: as §4

[6] = target: T1, Hs_FPR2; experiment: BRET receptor-RLuc8 interaction with Venus-mGsi; settings: for Log EC50 (M): log of EC50, HEK293 transient, 10 min; for Log EC50 (M) / Emax (%): mGsi BRET, mean, ND = no interaction detected; for Emax (%): % of response to 1 μM WKYMVm
Summary of the method: as §1

[7] = Hs_FPR2-Rluc8 donor, Arrestin 3-YFP acceptor, read-out: EC50 arrestin recruitment, BRET
[8] = read-out: Log EC50 (M), internalization, Mean (converted)

Compound	Emax (%) [1]	EC50 [1, 7]	Log EC50 (M) [1]	Emax (%), internalization, Mean [2]	agonist-induced internalization (words) [2]	Log EC50 (M), internalization, Mean [2]	agonist-induced internalization (words) [3]	Emax (%), internalization, Mean [4]	Log EC50 (M), internalization, Mean [4]	agonist-induced internalization (words) [4]	agonist-induced internalization (words) [5]	Log EC50 (M) [6]	Emax (%) [6]	Emax [1]	Emax [2]	Emax [4]	EC50 [6]	Emax [6]	Emax [3]	Emax [5]	further results
Cc1cccc(-c2oc(C)nc2C(=O)Nc2cnn(Cc3nc(C(C)(F)F)co3)n2)c1 [ACT-389949]	73.56%	18 nM	−7.74 M	95.31%	full agonist	−7.975 M	only at 10 μM	118.5%	−6.539 M	full agonist	only at 10 μM	−7.80 M	69.25%	–	–	–	–	–	–	–	fold less potency at Mm_Fpr2, internalization ([4]; equipotent to WKYMVm at Hs_FPR2): 28 fold
COc1cc(F)c([C@@H]2CNC(=O)[C@H]2NC(=O)Nc2ccccc2)c(F)c1 [BMS-986235]	–	39.9 nM	–	–	robust internalization	–	failed to show appreciable internalization; also recorded: unable to induce any measurable internalization	–	–	robust internalization	failed to show appreciable internalization; also recorded: unable to induce any measurable internalization	–	–	85.1%	112%	88%	75.9 nM	64.4%	–	–	EC50 [2, 8]: 9.1e-07 M; times more potent at Mm_Fpr2 than Hs_FPR2, internalization [4]: 9 times; EC50 [4, 8]: 1.03e-07 M
CCCCOc1ccc(C(=O)NN2C(=O)c3ccccc3NC2c2ccc(OC)cc2)cc1 (stereo not shown) [QuinC1]	40.71%	–	−5.82 M	81.29%	partial agonists	−5.809 M	partial agonists	41.84%	−7.106 M	partial agonists	partial agonists	−6.06 M	34.75%	–	–	–	–	–	–	–	Emax (%), internalization, Mean ([5]; % of internalization to WKYMVm (1 mM in legend, 1 μM in text), Mm_Fpr1, 30 minutes, ND denotes no internalization measured): 66.27%; Log EC50 (M), internalization, Mean ([5]; Log EC50, HEK293 stably expressing FLAG-Mm_Fpr1, ligand 30 minutes, ND denotes no internalization measured): −6.120 M
CSCC[C@H](NC(=O)[C@H](Cc1ccc(O)cc1)NC(=O)[C@H](CCCCN)NC(=O)[C@@H](N)Cc1c[nH]c2ccccc12)C(=O)N[C@H](C(=O)N[C@H](CCSC)C(N)=O)C(C)C [WKYMVm]	–	–	–	–	–	–	–	–	–	–	–	–	–	102%	97.5%	102%	–	100%	106%	108%	–
CSCC[C@H](NC=O)C(=O)N[C@@H](CC(C)C)C(=O)N[C@@H](Cc1ccccc1)C(=O)N[C@@H](CCCCN)C(=O)O [fMLFK, fMet-Leu-Phe-Lys] (For-MLFK-OH)	–	–	–	–	–	–	–	–	–	–	–	–	–	92.7%	99.9%	81.6%	26900 nM	80.7%	79.3%	179%	EC50 ([1]; read-out: Log EC50 (converted)): 36300 nM; EC50 [2]: 3.34e-05 M; EC50 [3]: 16.2 nM; EC50 [4]: 1.16e-05 M; EC50 [5]: 6110 nM
LESIFRSLLFRVM [MMK1]	–	–	−7.03 M	–	partial agonism	−7.216 M	failed to show appreciable internalization	–	–	unable to induce internalization	failed to show appreciable internalization	−7.17 M	–	59.1%	62.9%	8.68%	–	38.7%	–	11.6%	agonist-induced internalization (words) ([3]; listed as MMK-1): unable to induce internalization; agonist-induced internalization (words) ([5]; listed as MMK-1): unable to induce internalization
